# Source: article PMC9701179, “New tricyclic systems as photosensitizers towards triple negative breast cancer cells” (Archives of Pharmacal Research, 2022)
# Legend:
# MDA-MB-231 cells = experiment: Cell death induction (Hoechst / PI staining, confocal microscopy); assay type: cell-based, human; settings: MDA-MB-231, IC50 doses, 24 h
# Protocol: MDA-MB-231 cells were seeded into 8-well tissue-culture slides (BD Falcon, Bedford, MA, USA) at 5 × 10^4 cells/well (0.8 cm^2). After 24 h, the cells were washed twice with PBS and, following 24 h of treatment with IC50 doses of the tested compound, cells were stained for 5 min with 10 µg/mL of Hoechst 33258 (20-(4-hydroxyphenyl)-5-(4-methyl-1-piperazinyl)-2,50-bi-1H-benzimidazole trihydrochloride hydrate, Sigma-Aldrich, St.Louis, MI, USA) or propidium iodide (PI, Sigma-Aldrich, St.Louis, MI, USA) in PBS. Samples were examined at × 5 and × 40 magnification in a Zeiss LSM 800 confocal microscope using the Zeiss ZEN 2.3 software system.
# Fig. 5 Effects on mitochondrial membrane potential (A) and cell death induction (B) in human breast MDA-MB-231 cancer cells. A Cells were treated with 7h and 8e and stained with TMRM (10 nM). Fluorescence was estimated at 490 nm (excitation) and 590 nm (emission). Data are the means of five independent experiments. Error bars indicate S.D. * P < 0.05. B Cells were treated with concentrations of 7h and 8e equal to IC50 for 24 h and stained with the fluorescent dyes Hoechst 33342 and PI
# Loss of mitochondrial transmembrane potential is a crucial step in the activation of intrinsic apoptotic cell death. […] MDA-MB-231 cells were treated with IC50 doses of tested compounds and apoptotic cell death induction was confirmed through a Hoechst 33342 staining assay.
# [1] = UVA photostability (UV-Vis spectra in PBS); assay type: physicochemical; settings: for Stability under UVA irradiation (UV-Vis spectra): 2.2 × 10^−5 M, increasing UVA doses 0–20 J/cm^2; for Photodegradation at the light dose of the cytotoxic experiments: UVA 2 J/cm^2, decrease of absorbance of main UV-Vis peaks (data not shown)
# Protocol: Samples containing each compound (2.2 × 10^− 5 M) dissolved in PBS (0.04 M) were irradiated with increasing UVA doses from 0 to 20 J/cm^2 ([…], 5, 10, 15 and 20 J/cm^2), and their absorption spectrum was measured, with a Cary 50 Scan UV–Visible Spectrophotometer.
# The most significant 7h and 8e pyridone derivatives were tested for their stability under UVA irradiation. […] Moreover, isosbestic points were visible, indicating the formation of one or more new stable species in equilibrium with the intact dark compound.
# Fig. 6 UV–Vis Absorption spectra of 7h (left) and 8e (right) in PBS irradiated under 0, 2, 5, 10, 15 and 20 J/cm^2 with UVA light. 0 J/cm^2, red spectrum; 20 J/cm^2, light green spectrum
Stability under UVA irradiation (UV-Vis spectra) [1],SMILES,Apoptotic cell death induction (Hoechst 33342 staining) (MDA-MB-231 cells),Necrosis induction (PI staining) (MDA-MB-231 cells),Photodegradation at the light dose of the cytotoxic experiments [1]
very unstable under light,"CCOC(=O)c1ccc2n1CCCc1cc(S(=O)(=O)c3ccccc3)c(OC)nc1-2 [Compound 8e, Ethyl 3-(benzenesulfonyl)-2-methoxy-6,7-dihydro-5H-pyrido[2,3-c]pyrrolo[1,2-a]azepine-9-carboxylate]",positive to Hoechst 33342 staining,poor stained with PI,photodegradation was very weak
very unstable under light,"CCOC(=O)c1ccc2n1CCc1cc(S(=O)(=O)c3ccccc3)c(OC)nc1-2 [Compound 7h, Ethyl 3-(benzenesulfonyl)-2-methoxy-5,6-dihydropyrrolo[1,2-h][1,7]naphthyridine-8-carboxylate]",positive to Hoechst 33342 staining,poor stained with PI,photodegradation was very weak
